Results as given in patent publication US20220264878A1, “HERBICIDAL COMPOSITION CONTAINING R-TYPE PYRIDYLOXY CARBOXYLIC ACID DERIVATIVE AND USE THEREOF” (Qingdao Kingagroot Chemical Compound Co., Ltd., priority 2019, published 2022).

What was measured:
Type in all cases: in vivo
Echinochloa oryzoides [1] = assay: Post-emergence foliage spray, pot culture, fresh weight inhibition (Tables 1-48, 51-98, 101-148; 24 days)
Method in brief: (§1)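 Pot-grown weeds were thinned to 15 per pot (45 per treatment) and sprayed on foliage at the 5–6-leaf stage for grasses or the 6–7-leaf stage for broadleaves. Agents were dissolved in acetone with 0.1% Tween-80 and applied at 450 kg/ha spray volume and 0.3 MPa. Plants were then kept in a greenhouse. Above-ground fresh weight of survivors, with dead plants counted as zero, gave inhibition versus a solvent/emulsifier blank.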

Echinochloa oryzoides [2] = assay: Soil sealing treatment, pot culture, fresh weight inhibition (Tables 149, 150)
Experimental: (§2) A method for investigating absolute number was employed, wherein whole seedlings of survival weeds were cut off with a blade along the soil surface, and the fresh weight of the weeds was weighed with an analytical balance. For dead weeds, the fresh weight thereof was zero.
(§3) Theoretical fresh weight inhibition rate of a combination of two active ingredients in each group was calculated by the Gowing method (E0=X+Y−X*Y/100), and then compared with an actually measured inhibition rate (E), thereby effect of the combination (hereafter referred to as combined effect) on weeds was evaluated: the value of E-E0, which was greater than 10%, corresponded to a synergistic effect, the value of E-E0, which was less than −10%, corresponded to an antagonistic effect, and the value of E-E0, which was from −10% to 10%, corresponded to an additional effect. […] Wherein, in the formula, X represented the fresh weight inhibition rate of the active ingredient A in a dosage of P, and Y represented the fresh weight inhibition rate of the active ingredient B in a dosage of Q.
(§4) Echinochloa crusgalli var zelayensis were collected in Huai'an of Jiangsu Province; Echinochloa caudate were collected in Pingluo of Ningxia Province; Echinochloa oryzoides were collected in Qiqiha'er of Heilongjiang Province.
(§5) The culture was carried out in a controllable sunlight greenhouse at 20 to 30° C., in natural light, and relative humidity of 57% to 72%. […] The test soil was placed quantitatively to ¾ of the pots and then watered from the bottom of the pots to completely wet the soil to saturation. The pretreated test weed seeds were uniformly sowed on the surface, then covered with 0.5-2 cm soil according to the seed size, and ready-for use 24 hours after sowing.
(§6) The technical materials were all dissolved in acetone, and diluted with an aqueous solution containing 0.1% emulsifier T-80. The dilution is performed as required.
(§7) A ratio of A to the active ingredient B and amounts thereof in each group depends on the characteristics and toxicity of the two agents, as well as the main application purpose of a corresponding formulation. Based on the pre-tests in this study, the dosage of A and the active ingredient B applied alone and in combination were shown in the tables. Water containing the solvent and emulsifier same with the above groups but free of the agents was used as a blank control.
(§8) 3 pots with 30 weed seeds per pot were treated in one treatment with 4 replications per treatment.
(§9) The pots which were sowed and mulched were evenly placed on a platform with an area of 0.5 m^2, and a solution of agents was sprayed on soil surface thereof by the 3WP-2000-type walking spray tower at a dosage of […] and at a spray pressure of 0.3 MPa. After all the solution was sprayed, the valve was closed. After 30 seconds, the door of the spray tower was opened, and the nutritional bowl was taken out. Then the valve was opened, and the spray tube was cleaned by spraying 50 ml of water.
(§10) This section was same as the section 4) in the post-emergence treatment by performing foliage spray, and was not repeated herein.

Alopecurus japonicus = assay: Post-emergence foliage spray, pot culture, fresh weight inhibition (Tables 151-206; 20 days); settings: 20 days
Method in brief: (§11)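 Field-collected weeds grown in pots in a greenhouse (20-30° C., natural light, 57-72% RH), 15 per pot, 3 pots × 4 replicates. Single foliar spray at 4-5 leaves (grasses) or 5-6 leaves (broadleaf) with acetone/0.1% Tween-80 dilutions at 450 kg/ha, 0.3 MPa. Above-ground fresh weight inhibition versus solvent blank at 20 days.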

Digitaria sanguinalis = assay: as above; settings: 20 days
Method in brief: as §11

Eleusine indica = assay: as above; settings: 20 days
Method in brief: as §11

Sinapis arvensis = assay: as above; settings: 20 days
Method in brief: as §11

Amaranthus retroflexus [3] = assay: as above; settings: 20 days
Method in brief: (§12)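 Pre-germinated seeds (25° C soak 6 h, 28° C dark) grown in pots, thinned to 15 per pot; foliage-sprayed at 4~5-leaf (grasses) or 5~6-leaf (broadleaf) stage, 450 kg/ha spray volume, 0.3 MPa. Agents in acetone diluted with 0.1% Tween-80 water; solvent blank control. Above-ground fresh weight weighed, dead weeds scored zero.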

Capsella bursa-pastoris = assay: as above; settings: 20 days
Method in brief: as §12

Chenopodium album = assay: Post-emergence foliage spray, pot culture, fresh weight inhibition (Tables 1-48, 51-98, 101-148; 24 days); settings: Table 96
Method in brief: as §1

Acalypha australis = assay: as above
Method in brief: (§13)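 Greenhouse pot plants (20–30 °C, natural light, 57–72% RH) were sprayed once on foliage at 450 kg/ha and 0.3 MPa, at the 5–6-leaf (grass) or 6–7-leaf (broadleaf) stage. Compounds were in acetone diluted with 0.1% Tween-80 water. Surviving shoots were weighed at 24 days; dead plants counted as zero.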

Amaranthus retroflexus [4] = assay: as above
Method in brief: as §13

[5] = tested on: Echinochloa crusgalli var. zelayensis; assay: Soil sealing treatment, pot culture, fresh weight inhibition (Tables 49, 50)
Experimental: as §2, §3, §4, §5, §6, §7, §8, §9, §10

Echinochloa caudate = assay: Soil sealing treatment, pot culture, fresh weight inhibition (Tables 99, 100)
Experimental: as §2, §3, §4, §5, §6, §7, §8, §9, §10

## C[C@@H](Oc1nc(F)c(Cl)c(N)c1Cl)C(=O)[O-].[K+] [Compound A4, A1 potassium salt]
Echinochloa oryzoides [1]; A 75 g a.i./ha
  Control effect (%) of A applied alone in corresponding dose: 52.6%
Echinochloa oryzoides [1]; A 150 g a.i./ha
  Control effect (%) of A applied alone in corresponding dose: 74.7%
Echinochloa oryzoides [1]; Table 101, 75 g a.i./ha
  Control effect (%) of A applied alone in corresponding dose: 52.6%
Echinochloa oryzoides [1]; Table 101, 150 g a.i./ha
  Control effect (%) of A applied alone in corresponding dose: 74.7%
Echinochloa oryzoides [1]; Table 102, 75 g a.i./ha
  Control effect (%) of A applied alone in corresponding dose: 52.6%
Echinochloa oryzoides [1]; Table 102, 150 g a.i./ha
  Control effect (%) of A applied alone in corresponding dose: 74.7%
Echinochloa oryzoides [1]; Table 104, 75 g a.i./ha
  Control effect (%) of A applied alone in corresponding dose: 52.6%
Echinochloa oryzoides [1]; Table 104, 150 g a.i./ha
  Control effect (%) of A applied alone in corresponding dose: 74.7%
Echinochloa oryzoides [1]; Table 106, 75 g a.i./ha
  Control effect (%) of A applied alone in corresponding dose: 52.6%
Echinochloa oryzoides [1]; Table 106, 150 g a.i./ha
  Control effect (%) of A applied alone in corresponding dose: 74.7%
Echinochloa oryzoides [1]; Table 107, 75 g a.i./ha
  Control effect (%) of A applied alone in corresponding dose: 52.6%
Echinochloa oryzoides [1]; Table 107, 150 g a.i./ha
  Control effect (%) of A applied alone in corresponding dose: 74.7%
Echinochloa oryzoides [1]; Table 108, 75 g a.i./ha
  Control effect (%) of A applied alone in corresponding dose: 52.6%
Echinochloa oryzoides [1]; Table 108, 150 g a.i./ha
  Control effect (%) of A applied alone in corresponding dose: 74.7%
Echinochloa oryzoides [1]; Table 109, 75 g a.i./ha
  Control effect (%) of A applied alone in corresponding dose: 52.6%
Echinochloa oryzoides [1]; Table 109, 150 g a.i./ha
  Control effect (%) of A applied alone in corresponding dose: 74.7%
Echinochloa oryzoides [1]; Table 110, 75 g a.i./ha
  Control effect (%) of A applied alone in corresponding dose: 52.6%
Echinochloa oryzoides [1]; Table 110, 150 g a.i./ha
  Control effect (%) of A applied alone in corresponding dose: 74.7%
Echinochloa oryzoides [2]; A 75 g a.i./ha
  Control effect (%) of A applied alone in corresponding dose: 18.9%
Echinochloa oryzoides [2]; A 150 g a.i./ha
  Control effect (%) of A applied alone in corresponding dose: 42.5%
Alopecurus japonicus; A 75 g a.i./ha
  Control effect (%) of A applied alone in corresponding dose: 24.9%
Alopecurus japonicus; A 150 g a.i./ha
  Control effect (%) of A applied alone in corresponding dose: 47.2%
Digitaria sanguinalis; A 75 g a.i./ha
  Control effect (%) of A applied alone in corresponding dose: 22.2%
Digitaria sanguinalis; A 150 g a.i./ha
  Control effect (%) of A applied alone in corresponding dose: 56.4%
Eleusine indica; A 75 g a.i./ha
  Control effect (%) of A applied alone in corresponding dose: 38.5%
Eleusine indica; A 150 g a.i./ha
  Control effect (%) of A applied alone in corresponding dose: 69.2%
Sinapis arvensis; A 75 g a.i./ha
  Control effect (%) of A applied alone in corresponding dose: 41.1%
Sinapis arvensis; A 150 g a.i./ha
  Control effect (%) of A applied alone in corresponding dose: 65.9%
Amaranthus retroflexus [3]; A 75 g a.i./ha
  Control effect (%) of A applied alone in corresponding dose: 26.7%
Amaranthus retroflexus [3]; A 150 g a.i./ha
  Control effect (%) of A applied alone in corresponding dose: 57.2%
Capsella bursa-pastoris; A 75 g a.i./ha
  Control effect (%) of A applied alone in corresponding dose: 44.2%
Capsella bursa-pastoris; A 150 g a.i./ha
  Control effect (%) of A applied alone in corresponding dose: 67.2%

## C#CCN1C(=O)COc2cc(F)c(N3C(=O)C4=C(CCCC4)C3=O)cc21 [flumioxazin]
Chenopodium album; 7.5 g a.i./ha
  Control effect (%) of B applied alone in corresponding dose: 3.4%
Chenopodium album; 15 g a.i./ha
  Control effect (%) of B applied alone in corresponding dose: 12.8%
Chenopodium album; 30 g a.i./ha
  Control effect (%) of B applied alone in corresponding dose: 37.3%
Chenopodium album; 60 g a.i./ha
  Control effect (%) of B applied alone in corresponding dose: 78.8%
Acalypha australis; B 7.5 g a.i./ha
  Control effect (%) of B applied alone in corresponding dose: 6.9%
Acalypha australis; B 15 g a.i./ha
  Control effect (%) of B applied alone in corresponding dose: 13.7%
Acalypha australis; B 30 g a.i./ha
  Control effect (%) of B applied alone in corresponding dose: 39.0%
Acalypha australis; B 60 g a.i./ha
  Control effect (%) of B applied alone in corresponding dose: 79.3%
Amaranthus retroflexus [4]; flumioxazin 7.5 g a.i./ha
  Control effect (%) of B applied alone in corresponding dose: 5.5%
Amaranthus retroflexus [4]; flumioxazin 15 g a.i./ha
  Control effect (%) of B applied alone in corresponding dose: 12.4%
Amaranthus retroflexus [4]; flumioxazin 30 g a.i./ha
  Control effect (%) of B applied alone in corresponding dose: 37.4%
Amaranthus retroflexus [4]; flumioxazin 60 g a.i./ha
  Control effect (%) of B applied alone in corresponding dose: 78.9%

## C#CCOc1cc(-n2nc(C(C)(C)C)oc2=O)c(Cl)cc1Cl [oxadiargyl]
[5]; oxadiargyl 7.5 g a.i./ha
  Control effect (%) of B applied alone in corresponding dose: 1.6%
[5]; oxadiargyl 15 g a.i./ha
  Control effect (%) of B applied alone in corresponding dose: 10.4%
[5]; oxadiargyl 30 g a.i./ha
  Control effect (%) of B applied alone in corresponding dose: 38.8%
[5]; oxadiargyl 60 g a.i./ha
  Control effect (%) of B applied alone in corresponding dose: 63.5%
Echinochloa caudate; Table 100, 7.5 g a.i./ha
  Control effect (%) of B applied alone in corresponding dose: 1.7%
Echinochloa caudate; Table 100, 15 g a.i./ha
  Control effect (%) of B applied alone in corresponding dose: 10.8%
Echinochloa caudate; Table 100, 30 g a.i./ha
  Control effect (%) of B applied alone in corresponding dose: 37.2%
Echinochloa caudate; Table 100, 60 g a.i./ha
  Control effect (%) of B applied alone in corresponding dose: 62.5%
Echinochloa oryzoides [2]; B 7.5 g a.i./ha
  Control effect (%) of B applied alone in corresponding dose: 2.6%
Echinochloa oryzoides [2]; B 15 g a.i./ha
  Control effect (%) of B applied alone in corresponding dose: 12.7%
Echinochloa oryzoides [2]; B 30 g a.i./ha
  Control effect (%) of B applied alone in corresponding dose: 41.6%
Echinochloa oryzoides [2]; B 60 g a.i./ha
  Control effect (%) of B applied alone in corresponding dose: 63.3%

## CC(C)Oc1cc(-n2nc(C(C)(C)C)oc2=O)c(Cl)cc1Cl [oxadiazon]
[5]; oxadiazon 37.5 g a.i./ha
  Control effect (%) of B applied alone in corresponding dose: 4.2%
[5]; oxadiazon 75 g a.i./ha
  Control effect (%) of B applied alone in corresponding dose: 25.4%
[5]; oxadiazon 150 g a.i./ha
  Control effect (%) of B applied alone in corresponding dose: 41.5%
[5]; oxadiazon 300 g a.i./ha
  Control effect (%) of B applied alone in corresponding dose: 64.2%
Echinochloa caudate; Table 99, 37.5 g a.i./ha
  Control effect (%) of B applied alone in corresponding dose: 6.0%
Echinochloa caudate; Table 99, 75 g a.i./ha
  Control effect (%) of B applied alone in corresponding dose: 22.1%
Echinochloa caudate; Table 99, 150 g a.i./ha
  Control effect (%) of B applied alone in corresponding dose: 39.5%
Echinochloa caudate; Table 99, 300 g a.i./ha
  Control effect (%) of B applied alone in corresponding dose: 63.0%
Echinochloa oryzoides [2]; B 37.5 g a.i./ha
  Control effect (%) of B applied alone in corresponding dose: 5.1%
Echinochloa oryzoides [2]; B 75 g a.i./ha
  Control effect (%) of B applied alone in corresponding dose: 10.3%
Echinochloa oryzoides [2]; B 150 g a.i./ha
  Control effect (%) of B applied alone in corresponding dose: 39.7%
Echinochloa oryzoides [2]; B 300 g a.i./ha
  Control effect (%) of B applied alone in corresponding dose: 50.8%
